Experimental data taken from US12030906B2, “Crystalline forms of (s)-2-ethylbutyl 2-(((s)-(((2r,3s,4r,5r)-5-(4-aminopyrrolo[2,1-f] [1,2,4]triazin-7-yl)-5-cyano-3,4-dihydroxytetrahydrofuran-2-yl)methoxy) (phenoxy) phosphoryl)amino)propanoate” (priority 2017, dated 2024).
Read-outs that look alike come from different tables or passages of the source.

Key:
[1] = Competition experiment between Formula I Form I and Formula I Form II in isopropyl acetate; type: physicochemical; conditions: Experiment 26; Form I 11 mg + Mixture II 55.4 mg in IPAc 889 mg; 75 mg/g; suspension
Procedure: A competition experiment between Formula I Form I and Formula I Form II was conducted by mixing Formula I Form I with isopropyl acetate, followed by adding Mixture II, a mixture of Formula I Form II and Formula I Form IV.

[2] = type: physicochemical; conditions: for XRPD: room temperature, two weeks
[3] = Competition experiment between Formula I Form II and Formula I Form IV in IPA/Water at 50° C.; type: physicochemical
[4] = Experiment 023, wt % water 9.3, 1 day in suspension, Temp. 50
[5] = Experiment 030, wt % water 4.9, 1, 3 days in suspension, Temp. 50
[6] = Experiment 033, wt % water 39.5, 3 days in suspension, Temp. 50
[7] = Experiment 034, wt % water 49.9, 1, 3 days in suspension, Temp. 50

CCC(CC)COC(=O)[C@H](C)N[P@](=O)(OC[C@H]1O[C@@](C#N)(c2ccc3c(N)ncnn23)[C@H](O)[C@@H]1O)Oc1ccccc1 [Formula I Form I, (S)-2-ethylbutyl 2-(((S)-(((2R,3S,4R,5R)-5-(4-aminopyrrolo[2,1-f][1,2,4]triazin-7-yl)-5-cyano-3,4-dihydroxytetrahydrofuran-2-yl)methoxy)(phenoxy)phosphoryl)amino)propanoate]
Form II in 1 day: Comment (form conversion) [1]

CCC(CC)COC(=O)[C@H](C)N[P@](=O)(OC[C@H]1O[C@@](C#N)(c2ccc3c(N)ncnn23)[C@H](O)[C@@H]1O)Oc1ccccc1 [Formula I, (S)-2-ethylbutyl 2-(((S)-(((2R,3S,4R,5R)-5-(4-aminopyrrolo[2,1-f][1,2,4]triazin-7-yl)-5-cyano-3,4-dihydroxytetrahydrofuran-2-yl)methoxy)(phenoxy)phosphoryl)amino)propanoate]
Partially converted to Form II: XRPD ([2]; Experiment 12, 1-propanol) | XRPD ([2]; Experiment 14, THF) | XRPD ([2]; Experiment 16, 2-propanol) | XRPD ([2]; Experiment 20, DCM) | XRPD ([2]; Experiment 24, MTBE) | XRPD ([2]; Experiment 26, 2MeTHF)
Form II: XRPD ([2]; Experiment 18, ACN) | XRPD ([2]; Experiment 22, Ethanol) | XRPD ([2]; Experiment 28, EtOAc/water) | XRPD ([2]; Experiment 30, MEK) | XRPD ([2]; Experiment 32, Ethanol/water aw 0.4)

CCC(CC)COC(=O)[C@H](C)N[P@](=O)(OC[C@H]1O[C@@](C#N)(c2ccc3c(N)ncnn23)[C@H](O)[C@@H]1O)Oc1ccccc1 [Formula I Mixture II, (S)-2-ethylbutyl 2-(((S)-(((2R,3S,4R,5R)-5-(4-aminopyrrolo[2,1-f][1,2,4]triazin-7-yl)-5-cyano-3,4-dihydroxytetrahydrofuran-2-yl)methoxy)(phenoxy)phosphoryl)amino)propanoate]
Form II in 1 day: Comment (form conversion) [1]
Form II: DSC [3, 4] | XRPD [3, 4] | DSC [3, 5] | XRPD [3, 5] | DSC [3, 6] | XRPD [3, 6] | DSC [3, 7] | XRPD [3, 7] | DSC ([3]; Experiment 037, wt % water 0.93, 2 days in suspension, Temp. 50, 22)
conversion to Formula I Form II: conversion of form ([3]; IPA/Water (3/6 V/V) at 50° C. for several days, all experiments)

CCC(CC)COC(=O)[C@H](C)N[P@](=O)(OC[C@H]1O[C@@](C#N)(c2ccc3c(N)ncnn23)[C@H](O)[C@@H]1O)Oc1ccccc1 [Formula I Form II, (S)-2-ethylbutyl 2-(((S)-(((2R,3S,4R,5R)-5-(4-aminopyrrolo[2,1-f][1,2,4]triazin-7-yl)-5-cyano-3,4-dihydroxytetrahydrofuran-2-yl)methoxy)(phenoxy)phosphoryl)amino)propanoate]
more stable form: more stable form ([2]; several competition experiments)
